# PMC5460289, “Identification of New Shikonin Derivatives as Antitumor Agents Targeting STAT3 SH2 Domain” (Scientific Reports, 2017)
# Legend:
# Format in all cases: cell-based, human
# [1] = test system: IL-6-induced STAT3 phosphorylation in MDA-MB-231 cells; assay: IL-6 induction of STAT3 phosphorylation (Western blot); details: 2 μM pretreatment 24 h, IL-6 (20 ng/mL) 30 min
# Experimental: (§1) Figure 6 (A) PMM-172 suppressed constitutive pSTAT3 (Tyr705) in a dose-dependent manner. (B) PMM-172 suppressed constitutive pSTAT3 (Tyr705) in a time-dependent manner. (C) MDA-MB-231 cells were treated with IL-6 (20 ng/mL) or vehicle for 30 min, with or without pretreatment with PMM-172 (2 μM) for 24 h. PMM-172 inhibited IL-6 induced phosphorylation of STAT3. (D) Stattic suppressed constitutive pSTAT3 (Tyr705) in a dose-dependent manner. (E) Stattic suppressed constitutive pSTAT3 (Tyr705) in a time-dependent manner. (F) Tyrosine phosphorylation of two STAT family proteins STAT1 and STAT5 were detected with specific antibodies. […] Data were shown as mean ± SD of three independent experiments. *P < 0.05, **P < 0.01. Cropped blots/gels were used in the figure and the gels had been run under the same experimental conditions; the full-length blots/gels are presented in Supplementary Figure S2.
# We further investigated whether PMM-172 could inhibit IL-6-induced STAT3 phosphorylation in MDA-MB-231 cells.
# Cells were seeded in 10 cm plates and allowed to adhere overnight. The following day, the specimen was serum starved for 24 h. The specimen was then treated with or without tested agents at the dose of 2 μM. […] Cells were then harvested after 30 min and analyzed by Western blot.
# [2] = test system: STAT5; assay: Western blot of STAT5 phosphorylation and expression; details: MDA-MB-231
# Experimental: as §1
# Subsequently, we evaluated the phosphorylation level of other STAT family proteins including STAT1 and STAT5.
# (§2) Cells were rinsed twice with cold PBS and then lysed with RIPA buffer containing a protease inhibitor mixture at 1:100 dilution on ice for 30 min. Insoluble components of cell lysates were removed by centrifugation (4 °C, 12000 rmp, 10 min), and protein concentrations were measured using a Pierce BCA protein assay kit. […]
# [3] = test system: STAT3 nuclear localization in MDA-MB-231 cells; assay: STAT3 nuclear localization (cytoplasmic and nuclear extracts, Western blot); details: MDA-MB-231, 24 h
# Experimental: It is known that the dimerization of STAT3 is induced by the phosphorylation at residue Tyr 705, which then leads to its nuclear translocation. Herein, we investigated the effect of PMM-172 and Stattic on STAT3 nuclear translocation. The cytoplasmic and nuclear proteins of treated cells were extracted and the expressions of STAT3 in both fractions were examined.
# Figure 7 MDA-MB-231 cells were treated with indicated concentrations of PMM-172 or Stattic for 24 h, the expression levels of STAT3 in cytoplasmic and nuclear extracts were examined and relative expression levels were analyzed by Image J software. β-actin and Lamin B1 served as markers of cytoplasmic and nuclear extractions, respectively. […] (C) MCF-10A cells were treated with the indicated concentrations of PMM-172 for 24 h. PMM-172 had no effect on the level of the pSTAT3 level in MCF-10A cells. […] Data were shown as mean ± SD from three independent experiments, **P < 0.01. Cropped blots/gels were used in the figure and the gels had been run under the same experimental conditions; the full-length blots/gels are presented in Supplementary Figure S3.
# To examine the relative proportion of STAT3 in the cytoplasm and nucleus, cytoplasmic and nuclear extracts were prepared. In brief, control and treated cells were collected and suspended in a buffer containing 10 mM HEPES (pH 7.9), 10 mM KCl, 0.1 mM EDTA (pH 8.0), 0.1 mM EGTA (pH 7.0), 1 mM DTT, 0.5 mM PMSF, 2 μg/mL leupeptin, 2 μg/mL aprotonin, 0.5 mg/mL benzamidine. After 15 min, NP-40 (0.25%) was added, and cell lysate was vortexed for 10 s and centrifuged at 10000 rmp at 4 °C for 1 min. […] The protein content in the nuclear and cytoplasmic fractions was determined using a Pierce BCA protein assay kit.
# as §2
smiles,measurement,setting,value
"COc1cc(OC)cc(-c2nnc(SCC(=O)O[C@H](CC=C(C)C)C3=CC(=O)c4c(O)ccc(O)c4C3=O)o2)c1 [PMM-172, (R)-1-(5,8-dihydroxy-1,4-dioxo-1,4-dihydronaphthalen-2-yl)-4-methylpent-3-en-1-yl 2-((5-(3,5-dimethoxyphenyl)-1,3,4-oxadiazol-2-yl)thio)acetate]",IL-6-induced STAT3 phosphorylation,[1],suppressed IL-6-induced STAT3 phosphorylation
same,phosphorylation and expression of STAT5,[2],inhibited neither the phosphorylation nor expression
same,level of STAT3 in the cytoplasmic fraction,[3],slightly increased
same,level of STAT3 in the nuclear fraction,[3],decreased by PMM-172 in a dose-dependent manner
